Results on three molecules are retold here after BindingDB's records for doi:10.1016/0960-894X(95)00399-E (1995).

Test [1] addresses Gastrin/cholecystokinin type B receptor (Cavia porcellus). Description: Binding affinity towards Cholecystokinin type B receptor was measured by displacement of [125I]CCK from guinea pig cortical membranes. (In general: Loss of bound radioactivity is the signal in a displacement assay; it reports binding, not function.)
Test [2] shares this target. Described as above. This is another data set of the same source.

One may read the IC50 as the concentration needed to halve the response being measured. In test [1], `CN1C(=O)C(NC(=O)Nc2cccc(C(=O)O)c2)N=C(C2CCCCC2)c2ccccc21` (stereo not drawn) [3-[3-(5-Cyclohexyl-1-methyl-2-oxo-2,3-dihydro-1H-benzo[e][1,4]diazepin-3-yl)-ureido]-benzoic acid] returned a 50% inhibitory concentration (IC50) of 1.4 nM. This lies in the single-digit nanomolar range.
In turn, `CC(=O)NS(=O)(=O)c1cccc(NC(=O)NC2N=C(C3CCCCC3)c3ccccc3N(C)C2=O)c1` (stereo not drawn) [N-Acetyl-3-[3-(5-cyclohexyl-1-methyl-2-oxo-2,3-dihydro-1H-benzo[e][1,4]diazepin-3-yl)-ureido]-benzenesulfonamide] displayed an IC50 in test [1] of 0.36 nM.
`CN1C(=O)[C@H](NC(=O)Nc2cccc(C(=O)NS(=O)(=O)c3ccccc3)c2)N=C(C2CCCCC2)c2ccccc21` [N-{3-[3-((R)-5-Cyclohexyl-1-methyl-2-oxo-2,3-dihydro-1H-benzo[e][1,4]diazepin-3-yl)-ureido]-benzoyl}-benzenesulfonamide] had an IC50 in test [2] of 0.73 nM. In other words, the sub-nanomolar range.
